# Measurements taken from patent US7772263B2, “Compounds for the treatment of inflammatory disorders” (Schering Corporation, priority 2006, dated 2010).
# Biological target: T1, purified catalytic domain of recombinant human TACE (rhTACEc) (Homo sapiens, UniProt P78536, N452Q/S266A)
# T1 construct: rhTACEc, Residue 215 to 477 with two mutation (S266A and N4520) and a 6×His tail; 6xHis (C); made in house; host or cells: baculovirus/Hi5 insect cells
# Assay: TACE kinetic assay, cleavage of internally quenched fluorescent peptide substrate SPDL-3
# Type: biochemical
# Conditions: Ki (nM), TACE inhibitory activity, rhTACEc 70 pM, 30 μM SPDL-3, 90 min pre-incubation at 25° C.
# T1 sequence (P78536 215-477 S266A/N452Q limits assumed): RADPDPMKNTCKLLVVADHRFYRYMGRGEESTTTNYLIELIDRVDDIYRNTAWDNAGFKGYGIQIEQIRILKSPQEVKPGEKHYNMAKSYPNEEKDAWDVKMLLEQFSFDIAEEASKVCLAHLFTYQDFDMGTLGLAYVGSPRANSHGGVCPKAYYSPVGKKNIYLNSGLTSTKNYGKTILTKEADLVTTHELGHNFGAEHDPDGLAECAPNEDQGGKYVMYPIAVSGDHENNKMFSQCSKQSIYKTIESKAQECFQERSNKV
row,SMILES,Ki [nM]
1,COc1ccc2c(c1)C(=O)N(C[C@@]1(C#Cc3ccccc3F)NC(=O)NC1=O)C2 [Compound 516],0.13

# Same assay, conditions: TACE inhibition, Table 1001; read-out: Ki Rating
row,SMILES,Ki [nM]
1,COc1ccc2c(c1)C(=O)N(C[C@@]1(C#Cc3ccc(C(F)(F)F)cc3)NC(=O)NC1=O)C2 [Compound 486],< 5
2,COc1ccc2c(c1)C(=O)N(C[C@@]1(C#Cc3ccc4nc(N)sc4c3)NC(=O)NC1=O)C2 [Compound 494],< 5
3,COc1ccc2c(c1)C(=O)N(C[C@@]1(C#Cc3ccc4nc(NC5CC5)sc4c3)NC(=O)NC1=O)C2 [Compound 504],< 5
4,COc1ccc2c(c1)C(=O)N(C[C@@]1(C#Cc3ccc4sc(N)nc4c3)NC(=O)NC1=O)C2 [Compound 505],< 5
5,CNc1nc2cccc(C#C[C@]3(CN4Cc5ccc(OC)cc5C4=O)NC(=O)NC3=O)c2s1 [Compound 507],< 5
6,CNc1nc2cc(C#C[C@]3(CN4Cc5ccc(OC)cc5C4=O)NC(=O)NC3=O)ccc2s1 [Compound 508],< 5
7,COc1ccc2c(c1)C(=O)N(C[C@@]1(C#Cc3ccccc3F)NC(=O)NC1=O)C2 [Compound 516],< 5
8,COc1ccc2c(c1)C(=O)N(C[C@@]1(C#Cc3ccc(C(F)(F)F)nc3)NC(=O)NC1=O)C2 [Compound 519],< 5
9,COc1ccc2c(c1)C(=O)N(C[C@@]1(C#Cc3ccc(S(N)(=O)=O)s3)NC(=O)NC1=O)C2 [Compound 522],< 5
10,COc1ccc2c(c1)C(=O)N(C[C@@]1(C#Cc3ccc4nc(C(F)(F)F)n(C)c4c3)NC(=O)NC1=O)C2 [Compound 525],< 5
11,COc1ccc2c(c1)C(=O)N(C[C@@]1(C#Cc3ccc4sccc4c3)NC(=O)NC1=O)C2 [Compound 526],< 5
12,COc1ccc2c(c1)C(=O)N(C[C@@]1(C#Cc3ccc(C(F)(F)F)s3)NC(=O)NC1=O)C2 [Compound 529],< 5
13,COc1ccc2c(c1)C(=O)N(C[C@@]1(C#Cc3ccc(S(C)(=O)=O)s3)NC(=O)NC1=O)C2 [Compound 531],< 5
14,COc1ccc2c(c1)C(=O)N(C[C@@]1(C#Cc3cccc(=O)[nH]3)NC(=O)NC1=O)C2 [Compound 535],< 5
15,COc1ccc2c(c1)C(=O)N(C[C@@]1(C#Cc3ccc(=O)[nH]c3)NC(=O)NC1=O)C2 [Compound 536],< 5
16,COc1ccc2c(c1)C(=O)N(C[C@@]1(C#Cc3ccc(C(N)=O)s3)NC(=O)NC1=O)C2 [Compound 538],< 5
17,COc1ccc2c(c1)C(=O)N(C[C@@]1(C#Cc3ccc[n+]([O-])c3)NC(=O)NC1=O)C2 [Compound 539],< 5
18,COc1ccc2c(c1)C(=O)N(C[C@@]1(C#Cc3ccc(C(=O)NC4CC4)o3)NC(=O)NC1=O)C2 [Compound 901],< 5
19,COc1ccc2c(c1)C(=O)N(C[C@@]1(C#Cc3ccc4ncsc4c3)NC(=O)NC1=O)C2 [Compound 903],< 5
20,COc1ccc2c(c1)C(=O)N(C[C@@]1(C#Cc3ccc(-c4ccccn4)s3)NC(=O)NC1=O)C2 [Compound 909],< 5
21,COc1ccc2c(c1)C(=O)N(C[C@@]1(C#Cc3nc4ccccc4s3)NC(=O)NC1=O)C2 [Compound 910],< 5
22,COc1ccc2c(c1)C(=O)N(C[C@@]1(C#Cc3c(C)n[nH]c3C)NC(=O)NC1=O)C2 [Compound 911],< 5
23,COc1ccc2c(c1)C(=O)N(C[C@@]1(C#Cc3c(N)ccc4scnc34)NC(=O)NC1=O)C2 [Compound 912],< 5
24,COc1ccc2c(c1)C(=O)N(C[C@@]1(C#Cc3ncnc4c3ncn4C(C)C)NC(=O)NC1=O)C2 [Compound 913],< 5
25,COc1ccc2c(c1)C(=O)N(C[C@@]1(C#Cc3ncnc4[nH]cnc34)NC(=O)NC1=O)C2 [Compound 914],< 5
26,COc1ccc2c(c1)C(=O)N(C[C@@]1(C#Cc3ccc(C(N)=O)o3)NC(=O)NC1=O)C2 [Compound 916],< 5
27,COc1ccc2c(c1)C(=O)N(C[C@@]1(C#Cc3ccc(C(=O)O)o3)NC(=O)NC1=O)C2 [Compound 917],< 5
28,COc1ccc2c(c1)C(=O)N(C[C@@]1(C#Cc3cnc(C)n3C)NC(=O)NC1=O)C2 [Compound 918],< 5

# The remaining lines, values ahead:
row,Ki [nM],SMILES
1,< 5,COc1ccc2c(c1)C(=O)N(C[C@@]1(C#Cc3cnn(C)c3)NC(=O)NC1=O)C2 [Compound 487]
2,< 5,COc1ccc2c(c1)C(=O)N(C[C@@]1(C#Cc3cccc(Cl)c3F)NC(=O)NC1=O)C2 [Compound 488]
3,< 5,COc1ccc2c(c1)C(=O)N(C[C@@]1(C#Cc3cccc(F)c3F)NC(=O)NC1=O)C2 [Compound 489]
4,< 5,COc1ccc2c(c1)C(=O)N(C[C@@]1(C#Cc3ccc(F)cc3F)NC(=O)NC1=O)C2 [Compound 490]
5,< 5,COc1ccc2c(c1)C(=O)N(C[C@@]1(C#Cc3c(F)cccc3F)NC(=O)NC1=O)C2 [Compound 491]
6,< 5,COc1ccc2c(c1)C(=O)N(C[C@@]1(C#Cc3c(F)cc(F)cc3F)NC(=O)NC1=O)C2 [Compound 492]
7,< 5,COc1ccc2c(c1)C(=O)N(C[C@@]1(C#Cc3cccc(F)c3Cl)NC(=O)NC1=O)C2 [Compound 493]
8,< 5,COc1ccc2c(c1)C(=O)N(C[C@@]1(C#Cc3ccc4sc(C)nc4c3)NC(=O)NC1=O)C2 [Compound 495]
9,< 5,COc1ccc2c(c1)C(=O)N(C[C@@]1(C#Cc3ccc(C)nc3C)NC(=O)NC1=O)C2 [Compound 496]
10,< 5,COc1ccc2c(c1)C(=O)N(C[C@@]1(C#Cc3cc(C)ccc3F)NC(=O)NC1=O)C2 [Compound 497]
11,< 5,COc1ccc2c(c1)C(=O)N(C[C@@]1(C#Cc3cc(F)ccc3C)NC(=O)NC1=O)C2 [Compound 498]
12,< 5,COc1ccc2c(c1)C(=O)N(C[C@@]1(C#Cc3ccc(Cl)cc3F)NC(=O)NC1=O)C2 [Compound 499]
13,< 5,COc1ccc2c(c1)C(=O)N(C[C@@]1(C#Cc3ccc(C)cc3F)NC(=O)NC1=O)C2 [Compound 500]
14,< 5,COc1ccc2c(c1)C(=O)N(C[C@@]1(C#Cc3cccc4nc(N)sc34)NC(=O)NC1=O)C2 [Compound 503]
15,< 5,COc1cncc(C#C[C@]2(CN3Cc4ccc(OC)cc4C3=O)NC(=O)NC2=O)c1 [Compound 506]
16,< 5,COc1ccc2c(c1)C(=O)N(C[C@@]1(C#Cc3ccc4nc(C)sc4c3)NC(=O)NC1=O)C2 [Compound 509]
17,< 5,COc1ccc2c(c1)C(=O)N(C[C@@]1(C#Cc3ccc(F)c(Cl)c3)NC(=O)NC1=O)C2 [Compound 510]
18,< 5,COc1ccc2c(c1)C(=O)N(C[C@@]1(C#Cc3ccc(C)s3)NC(=O)NC1=O)C2 [Compound 513]
19,< 5,COc1ccc2c(c1)C(=O)N(C[C@@]1(C#Cc3ccccc3C(F)(F)F)NC(=O)NC1=O)C2 [Compound 514]
20,< 5,COc1ccc2c(c1)C(=O)N(C[C@@]1(C#Cc3ccccc3OC(F)(F)F)NC(=O)NC1=O)C2 [Compound 515]
21,< 5,COc1ccc2c(c1)C(=O)N(C[C@@]1(C#Cc3cc(F)ccc3Cl)NC(=O)NC1=O)C2 [Compound 517]
22,< 5,COc1ccc2c(c1)C(=O)N(C[C@@]1(C#Cc3cc(Cl)ccc3F)NC(=O)NC1=O)C2 [Compound 518]

row,Ki [nM],SMILES
1,< 5,COc1ccc2c(c1)C(=O)N(C[C@@]1(C#Cc3sc4ccc(Cl)cc4c3C)NC(=O)NC1=O)C2 [Compound 520]
2,< 5,COc1ccc2c(c1)C(=O)N(C[C@@]1(C#Cc3cc(F)ccc3F)NC(=O)NC1=O)C2 [Compound 521]
3,< 5,COc1ccc2c(c1)C(=O)N(C[C@@]1(C#Cc3ccc(C)nn3)NC(=O)NC1=O)C2 [Compound 523]
4,< 5,COc1ccc2c(c1)C(=O)N(C[C@@]1(C#Cc3cc(C)c4c(cnn4C)c3)NC(=O)NC1=O)C2 [Compound 524]
5,< 5,COc1ccc2c(c1)C(=O)N(C[C@@]1(C#Cc3cc(C)c4nn(C)cc4c3)NC(=O)NC1=O)C2 [Compound 527]
6,< 5,COc1ccc2c(c1)C(=O)N(C[C@@]1(C#Cc3csc(C(F)F)c3)NC(=O)NC1=O)C2 [Compound 528]
7,< 5,COc1ccc2c(c1)C(=O)N(C[C@@]1(C#Cc3ccc(C(F)(F)F)cc3F)NC(=O)NC1=O)C2 [Compound 530]
8,< 5,COc1ccc2c(c1)C(=O)N(C[C@@]1(C#Cc3csc4ccccc34)NC(=O)NC1=O)C2 [Compound 532]
9,< 5,COc1ccc2c(c1)C(=O)N(C[C@@]1(C#Cc3csc(C)c3)NC(=O)NC1=O)C2 [Compound 533]
10,< 5,COc1ccc2c(c1)C(=O)N(C[C@@]1(C#Cc3ccsc3C(N)=O)NC(=O)NC1=O)C2 [Compound 537]
11,< 5,COc1ccc2c(c1)C(=O)N(C[C@@]1(C#Cc3cccn(C)c3=O)NC(=O)NC1=O)C2 [Compound 540]
12,< 5,COc1ccc2c(c1)C(=O)N(C[C@@]1(C#Cc3cncc(N)c3)NC(=O)NC1=O)C2 [Compound 554]
13,< 5,COc1ccc2c(c1)C(=O)N(C[C@@]1(C#Cc3cnc(O)cc3C)NC(=O)NC1=O)C2 [Compound 555]
14,< 5,COc1ccc2c(c1)C(=O)N(C[C@@]1(C#Cc3cn[nH]c3)NC(=O)NC1=O)C2 [Compound 900]
15,< 5,COc1ccc2c(c1)C(=O)N(C[C@@]1(C#Cc3c[nH]c(C)n3)NC(=O)NC1=O)C2 [Compound 902]
16,< 5,COc1ccc2c(c1)C(=O)N(C[C@@]1(C#Cc3ccccc3C(C)C)NC(=O)NC1=O)C2 [Compound 904]
17,< 5,O=C1NC(=O)[C@@](C#Cc2ccc(F)cc2F)(CN2Cc3ccc(OC(F)F)cc3C2=O)N1 [Compound 905]
18,< 5,COc1ccc2c(c1)C(=O)N(C[C@@]1(C#Cc3ccc(F)c(C#N)c3)NC(=O)NC1=O)C2 [Compound 906]
19,< 5,COc1ccc2c(c1)C(=O)N(C[C@@]1(C#Cc3ccc(OC)c(F)c3)NC(=O)NC1=O)C2 [Compound 907]
20,< 5,COc1ccc2c(c1)C(=O)N(C[C@@]1(C#Cc3cc(F)cc(F)c3OC)NC(=O)NC1=O)C2 [Compound 908]
21,< 5,COC(=O)c1ccc(C#C[C@]2(CN3Cc4ccc(OC)cc4C3=O)NC(=O)NC2=O)o1 [Compound 915]

# Same assay, conditions: rhTACEc 70 pM, 30 μM SPDL-3, 90 min pre-incubation at 25° C.; read-out: Ki (nM), TACE inhibitory activity
row,Ki [nM],SMILES
1,0.23,COc1ccc2c(c1)C(=O)N(C[C@@]1(C#Cc3ccc(F)cc3F)NC(=O)NC1=O)C2 [Compound 490]
2,0.31,COc1ccc2c(c1)C(=O)N(C[C@@]1(C#Cc3cncc(N)c3)NC(=O)NC1=O)C2 [Compound 554]
